As a reminder, the melting point is the temperature of the solid-liquid transition. In the case of `COc1cc(Nc2ncc3c(n2)-c2ccccc2CCC3)cc(OC)c1OC` [Example 6, N-(3,4,5-Trimethoxyphenyl)-6,7-dihydro-5H-benzo[6,7]cyclohepta[d]pyrimidine-2-amine], the melting point lay within 201 to 202 °C.

For the origin of these results see patent publication US6599908B1, “Fused polycyclic 2-aminopyrimidine derivatives” (Celltech R & D Limited, priority 1996, dated 2003).
